Results as given in patent US11319328B2 (priority 2017, dated 2022).

Legend:
Assay in all cases: cells
Type in all cases: cell-based
lung cancer A549 = details: cultured 48 h, MTT
Description: (§1) A cell strain: Hepatoma HepG2, cervical cancer Hela, lung cancer A549, breast cancer MCF7 cell line and human normal liver cell HL7702 were purchased from Wuhan Boster Biological Technology Co., Ltd.;
(§2) HepG2, Hela, A549, MCF 7 cells in logarithmic growth phase and human normal hepatocytes HL7702 were centrifuged at 1500 rpm for 5 min, and the supernatant was discarded; the cells were digested with a suitable amount of trypsin, and then suspended with a suitable amount of culture medium (HepG2, Hela and HL7702 cells were suspended with penicillin-streptomycin RPMI1640 culture medium containing 10% calf serum, A549 and MCF 7 cells with penicillin-streptomycin high glucose DMEM culture medium containing 10% calf serum, to adjust the cell concentration to 1.5×10^4 cells/well, the cells were seeded in 96-well plates, and the following experimental groups were set:
(§3) 0.10 mL of the cell suspension was added to each well, and incubated at 37° C., 5% CO2 and saturated humidity for 12 h, and the culture medium was discarded when the cell density was nearly 70%. […] 100 μl of 5 mg/ml MTT was added per well, standing for 4 h at 37° C. 100 μl of DMSO was added to each well, followed by shaking on a shaker for 10 min at 37° C., the absorbance (OD) was measured at 492 nm, and the MTT ratio was calculated as the OD value of drug group/OD value of negative control group.

[1] = test system: human normal liver cell HL7702; details: human normal hepatocytes HL7702, cultured 48 h, MTT
Description: as §1, §2, §3

Hepatoma HepG2 = details: cultured 48 h, MTT
Description: as §1, §2, §3

[2] = test system: breast cancer MCF7 cell line; details: cultured 48 h, MTT
Description: as §1, §2, §3

cervical cancer Hela = details: cultured 48 h, MTT
Description: as §1, §2, §3

| SMILES | IC50 (lung cancer A549) | IC50 [1] | IC50 (Hepatoma HepG2) | IC50 [2] | IC50 (cervical cancer Hela) | IC50 (lung cancer A549; Homo sapiens) | IC50 ([1]; L02) | IC50 (Hepatoma HepG2; Homo sapiens) | IC50 ([2]; Homo sapiens) | IC50 (cervical cancer Hela; Homo sapiens) |
| --- | --- | --- | --- | --- | --- | --- | --- | --- | --- | --- |
| COc1cc([C@@H]2c3cc4c(cc3[C@@H](Nc3nc(N)nc5ccccc35)[C@@H]3COC(=O)[C@H]23)OCO4)cc(OC)c1O [Compound 25, 4β-NH-(2,4-quinazolinediamine)-4′-demethylepipodophyllotoxin] | 3.6 ± 0.8 µM | 16.9 ± 2.5 µM | 9.8 ± 1.7 µM | 6.1 ± 1.3 µM | 3.6 ± 0.9 µM | – | – | – | – | – |
| COc1cc(C2c3cc4c(cc3C(Nc3ccc5ncccc5c3)C3COC(=O)C23)OCO4)cc(OC)c1O (stereo not drawn) [Compound 26, 4β-NH-(6-aminoquinoline)-4′-demethylepipodophyllotoxin] | 2 ± 0.5 µM | 22.8 ± 4.2 µM | 10 ± 1.9 µM | 4.3 ± 0.8 µM | 5.7 ± 1.1 µM | – | – | – | – | – |
| COc1cc(C2c3cc4c(cc3C(Nc3cccc5ncccc35)C3COC(=O)C23)OCO4)cc(OC)c1O (stereo not drawn) [Compound 27, 4β-NH-(5-aminoquinoline)-4′-demethylepipodophyllotoxin] | 1.3 ± 0.2 µM | 15.6 ± 1.8 µM | 1.6 ± 0.8 µM | 2.4 ± 0.9 µM | 2.1 ± 1 µM | – | – | – | – | – |
| COc1cc(C2c3cc4c(cc3C(Nc3cccc5cnccc35)C3COC(=O)C23)OCO4)cc(OC)c1O (stereo not drawn) [Compound 28, 4β-NH-(5-aminoisoquinoline)-4′-demethylepipodophyllotoxin] | 1.4 ± 0.6 µM | 19.8 ± 2.1 µM | 2.8 ± 1.6 µM | 2.5 ± 0.9 µM | 1.9 ± 0.9 µM | – | – | – | – | – |
| COc1cc([C@@H]2c3cc4c(cc3[C@@H](Nc3cccc5cccnc35)[C@@H]3COC(=O)[C@H]23)OCO4)cc(OC)c1O [Compound 29, 4β-NH-(8-aminoquinoline)-4′-demethylepipodophyllotoxin] | 2.8 ± 0.4 µM | 73 ± 7.8 µM | 4.5 ± 1.5 µM | 1.5 ± 0.4 µM | 3.8 ± 0.2 µM | – | – | – | – | – |
| COc1cc(C2c3cc4c(cc3C(Nc3cccc5ccc(C)nc35)C3COC(=O)C23)OCO4)cc(OC)c1O (stereo not drawn) [Compound 30, 4β-NH-(8-aminoquinaldine)-4′-demethylepipodophyllotoxin] | 0.5 ± 0.05 µM | > 100 µM | 5 ± 1.1 µM | 3 ± 0.5 µM | 4.2 ± 0.8 µM | – | – | – | – | – |
| COc1cc(C2c3cc4c(cc3C(Nc3ccc5[nH]ncc5c3)C3COC(=O)C23)OCO4)cc(OC)c1O (stereo not drawn) [Compound 31, 4β-NH-(5-indazolamine)-4′-demethylepipodophyllotoxin] | 1.7 ± 0.3 µM | > 100 µM | 6.8 ± 1.5 µM | 3.5 ± 0.3 µM | 4.3 ± 0.9 µM | – | – | – | – | – |
| COc1cc([C@@H]2c3cc4c(cc3[C@@H](Nc3ccc5[nH]ccc5c3)[C@@H]3COC(=O)[C@H]23)OCO4)cc(OC)c1O [Compound 34, 4β-NH-(5-aminoindole)-4′-demethylepipodophyllotoxin] | > 100 µM | > 100 µM | > 100 µM | 76.3 ± 5.7 µM | 21.7 ± 5.3 µM | – | – | – | – | – |
| COc1cc(C2c3cc4c(cc3C(Nc3ccc5cc[nH]c5c3)C3COC(=O)C23)OCO4)cc(OC)c1O (stereo not drawn) [Compound 35, 4β-NH-(6-aminoindole)-4′-demethylepipodophyllotoxin] | 6.5 ± 1 µM | > 100 µM | 19.5 ± 2.4 µM | 34.5 ± 3.8 µM | 21.1 ± 2.9 µM | – | – | – | – | – |
| COc1cc(C2c3cc4c(cc3C(Nc3cccc5cc[nH]c35)C3COC(=O)C23)OCO4)cc(OC)c1O (stereo not drawn) [Compound 36, 4β-NH-(7-aminoindole)-4′-demethylepipodophyllotoxin] | 19.5 ± 1.5 µM | 31.5 ± 3.2 µM | 15.4 ± 2.2 µM | 8 ± 5.5 µM | 15.4 ± 6.1 µM | – | – | – | – | – |
| COc1cc(C2c3cc4c(cc3C(Nc3ccccc3-c3nc5ccccc5[nH]3)C3COC(=O)C23)OCO4)cc(OC)c1O (stereo not drawn) [Compound 37, 4β-NH-(2-(2-aminophenyl)benzimidazole)-4′-demethylepipodophyllotoxin] | > 100 µM | > 100 µM | > 100 µM | > 100 µM | 48.6 ± 6.2 µM | – | – | – | – | – |
| COc1cc([C@@H]2c3cc4c(cc3[C@@H](O[C@@H]3O[C@@H]5CO[C@@H](C)O[C@H]5[C@H](O)[C@H]3O)[C@H]3COC(=O)[C@H]23)OCO4)cc(OC)c1O [Etoposide, etoposide, reference compound] | – | – | – | – | – | 22.5 ± 1.8 µM | 24.6 ± 3.8 µM | 20 ± 1.3 µM | 53.8 ± 5.6 µM | 21.4 ± 1.6 µM |
